Results: US8258140B2 (Astrazeneca AB, priority 2009, dated 2012)

Each compound was assayed against T1, Androgen Receptor (AR) in the LNCaP prostate carcinoma cell line (Homo sapiens, UniProt P10275, T878A) (assay: LNCaP Androgen Receptor Down-Regulation Cell Assay (immunofluorescence end point)). Settings: LNCaP cells, compound incubation 20-22 hours, concentration giving 50% reduction of the AR signal.
T1 construct: cell based immuno-fluorescence assay using the LNCaP prostate epithelial cell line; host or cells: LNCaP clone FGC
T1 sequence (P10275 1-920 T878A): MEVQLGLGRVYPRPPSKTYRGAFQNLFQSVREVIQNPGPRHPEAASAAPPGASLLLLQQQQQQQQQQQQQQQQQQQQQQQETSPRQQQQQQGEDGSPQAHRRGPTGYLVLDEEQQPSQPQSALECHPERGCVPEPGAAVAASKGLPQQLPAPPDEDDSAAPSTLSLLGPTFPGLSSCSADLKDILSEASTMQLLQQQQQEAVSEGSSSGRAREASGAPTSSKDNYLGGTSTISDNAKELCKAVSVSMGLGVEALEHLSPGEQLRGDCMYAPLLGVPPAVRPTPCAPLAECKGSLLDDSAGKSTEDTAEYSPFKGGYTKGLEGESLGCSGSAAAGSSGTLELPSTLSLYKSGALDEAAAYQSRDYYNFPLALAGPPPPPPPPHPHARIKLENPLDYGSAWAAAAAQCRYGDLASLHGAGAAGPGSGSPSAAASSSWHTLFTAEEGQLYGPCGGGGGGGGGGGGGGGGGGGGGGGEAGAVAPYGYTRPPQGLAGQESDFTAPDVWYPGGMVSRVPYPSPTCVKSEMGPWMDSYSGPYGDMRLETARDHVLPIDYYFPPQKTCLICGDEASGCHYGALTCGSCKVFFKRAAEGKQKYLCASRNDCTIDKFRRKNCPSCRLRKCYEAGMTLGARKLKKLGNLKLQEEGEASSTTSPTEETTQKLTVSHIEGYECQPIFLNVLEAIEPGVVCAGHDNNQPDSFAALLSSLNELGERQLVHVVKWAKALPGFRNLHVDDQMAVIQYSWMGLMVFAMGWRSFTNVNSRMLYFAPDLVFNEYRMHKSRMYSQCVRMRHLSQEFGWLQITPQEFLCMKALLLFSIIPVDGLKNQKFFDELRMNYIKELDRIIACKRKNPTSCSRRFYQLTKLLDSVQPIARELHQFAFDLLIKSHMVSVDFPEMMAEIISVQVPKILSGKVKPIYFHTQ
Type: cell-based
Description: The ability of compounds to reduce Androgen Receptor (AR) numbers was assessed in a cell based immuno-fluorescence assay using the LNCaP prostate epithelial cell line.
This immunofluorescence end point assay measures the ability of a test compound to down-regulate and reduce measured levels of the AR in the LNCaP prostate carcinoma cell line (LNCaP clone FGC (CRL-1740) obtained from the American Type Culture Collection (ATCC)).
LNCaP cells were cultured in Growth Medium (phenol red free Roswell Park Memorial Institute (RPMI) 1640 (Invitrogen Code no. 11835-063) containing 2 mM L-Glutamine (Invitrogen Code no. 25030-024) and 1% (v/v) Penicillin/Streptomycin (10000 units/ml Penicillin and 10000 μg/ml of Streptomycin utilising penicillin G (sodium salt) and streptomycin sulphate: prepared in normal saline, Invitrogen Code no. 15140122) and 10% (v/v) foetal bovine serum (FBS)) in a 5% CO2 air incubator at 37° C. Cells for assay were harvested from T175 stock flasks by washing once in PBS (phosphate buffered saline, pH 7.4) (Invitrogen Code no. 14190-094) and harvested using 5 mls of 1× Trypsin/ethylaminediaminetetraacetic acid (EDTA) (10× Trypsin-EDTA, 5.0 g/L Trypsin, 2.0 g/L of EDTA.4Na and 8.5 g/L of NaCl, without Phenol Red, Invitrogen Code no. 15400-054) diluted in PBS solution. A 5 ml volume of Growth Medium was added to each flask (as above except that 5% (v/v) charcoal stripped FBS (HyClone Code no. SH30068.03) was included instead of 10% (v/v) FBS). Cells were syringed at least twice using a sterile 18 G×1.5″ (1.2×40 mm) broad gauge needle and cell density was measured using a haemocytometer. Cells were further diluted in Growth Medium plus 5% (v/v) charcoal stripped FBS and seeded at a density of 6.5×10^3 cells per well (in 90 ul) into transparent, black, tissue culture treated 96 well plates (Packard, No. 6005182).
Test data reported herein was generated using two different compounds preparation and dosing methods. In method (1) a 10 mM compound stock solution in 100% (v/v) DMSO was serially diluted in 4-fold steps in 100% (v/v) DMSO using a Thermo Scientific Matrix SerialMate. The diluted compounds were then further diluted 1 in 30 in assay media using a Thermo Scientific Matrix PlateMate and a 10 μl aliquot of this dilution was dosed to cells manually using a multi-channel pipette. In method (2) starting with a 10 mM compound stock solution, the Labcyte Echo 550 was used to generate a compound concentration response set diluted in 30 μl of assay media. The Echo 550 is a liquid handler that uses acoustic technology to perform direct microplate-to-microplate transfers of DMSO compound solutions. The system can be programmed to transfer volumes as low as 2.5 nL in multiple increments between microplates and in so doing generates a serial dilution of compound which is then back-filled to normalise the DMSO concentration across the dilution range. A 10 μl volume of diluted compound is then dosed to cells using a Thermo Scientific Matrix PlateMate.
Plates were incubated overnight at 37° C., 5% CO2. Wells were then dosed with compound prepared by one of the 2 methods above and further incubated for 20-22 hours at 37° C., 5% CO2. Plates were fixed by the addition of 20 μl of 10% (v/v) formaldehyde solution (in PBS) to each well (final formaldehyde conc.=1.67% (v/v)) and left at room temperature for 10 mins. This fixative solution was removed and cells were washed with 250 μl of PBS/0.05% (v/v) Tween 20 (PBST) using an automated plate washer. This process was then repeated twice more.
Immunostaining was performed at room temperature. Cells were permeabilised by the addition of 35 μl of PBS containing 0.5% Tween 20 and incubated for 1 hour at room temperature. Permeabilisation solution was removed and cells were washed with 250 μl of PBST using an automated plate washer. This process was then repeated twice more. […]

| IC50 | SMILES |
| --- | --- |
| 2.9 µM | COCCN(C)C(=O)COc1ccc(C2CCN(C3=Nn4c(nnc4C(F)(F)F)CC3)CC2)cc1 [Example 19, N-(2-methoxyethyl)-N-methyl-2-(4-{1-[3-(trifluoromethyl)-7,8-dihydro[1,2,4]triazolo[4,3-b]pyridazin-6-yl]piperidin-4-yl}phenoxy)acetamide] |
| 4.1 µM | CN(C)C(=O)COc1ccc(C2CCN(C3=Nn4c(nnc4C(F)(F)F)CC3)CC2)cc1 [Example 20, N,N-dimethyl-2-(4-{1-[3-(trifluoromethyl)-7,8-dihydro[1,2,4]triazolo[4,3-b]pyridazin-6-yl]piperidin-4-yl}phenoxy)acetamide] |
| 26 µM | CN(CCO)C(=O)COc1ccc(C2CCN(C3=Nn4c(nnc4C(F)(F)F)CC3)CC2)cc1 [Example 21, N-(2-hydroxyethyl)-N-methyl-2-(4-{1-[3-(trifluoromethyl)-7,8-dihydro[1,2,4]triazolo[4,3-b]pyridazin-6-yl]piperidin-4-yl}phenoxy)acetamide] |
| 0.46 µM | CCCCN(C)C(=O)COc1ccc(C2CCN(C3=Nn4c(nnc4C(F)(F)F)CC3)CC2)cc1 [Example 22, N-butyl-N-methyl-2-(4-{1-[3-(trifluoromethyl)-7,8-dihydro[1,2,4]triazolo[4,3-b]pyridazin-6-yl]piperidin-4-yl}phenoxy)acetamide] |
| 1.3 µM | COCCN(C)C(=O)CCCOc1ccc(C2CCN(C3=Nn4c(nnc4C(F)(F)F)CC3)CC2)cc1 [Example 23, N-(2-methoxyethyl)-N-methyl-4-(4-{1-[3-(trifluoromethyl)-7,8-dihydro[1,2,4]triazolo[4,3-b]pyridazin-6-yl]piperidin-4-yl}phenoxy)butanamide] |
| 2.5 µM | CN(CCO)C(=O)CCCOc1ccc(C2CCN(C3=Nn4c(nnc4C(F)(F)F)CC3)CC2)cc1 [Example 24] |
| 0.93 µM | CCCCC(=O)N1CCN(CCOc2ccc(C3CCN(C4=Nn5c(nnc5C(F)(F)F)CC4)CC3)cc2)CC1 [Example 25, 6-(4-{4-[2-(4-pentanoylpiperazin-1-yl)ethoxy]phenyl}piperidin-1-yl)-3-(trifluoromethyl)-7,8-dihydro[1,2,4]triazolo[4,3-b]pyridazine] |
| 1.5 µM | CS(=O)(=O)N1CCN(CCOc2ccc(C3CCN(C4=Nn5c(nnc5C(F)(F)F)CC4)CC3)cc2)CC1 [Example 26, 6-[4-(4-{2-[4-(methylsulfonyl)piperazin-1-yl]ethoxy}phenyl)piperidin-1-yl]-3-(trifluoromethyl)-7,8-dihydro[1,2,4]triazolo[4,3-b]pyridazine] |
| 0.67 µM | CCCCC(=O)N1CCN(CCCOc2ccc(C3CCN(C4=Nn5c(nnc5C(F)(F)F)CC4)CC3)cc2)CC1 [Example 27, 6-(4-{4-[3-(4-pentanoylpiperazin-1-yl)propoxy]phenyl}piperidin-1-yl)-3-(trifluoromethyl)-7,8-dihydro[1,2,4]triazolo[4,3-b]pyridazine] |
| 1 µM | CS(=O)(=O)N1CCN(CCCOc2ccc(C3CCN(C4=Nn5c(nnc5C(F)(F)F)CC4)CC3)cc2)CC1 [Example 28, 6-[4-(4-{3-[4-(methylsulfonyl)piperazin-1-yl]propoxy}phenyl)piperidin-1-yl]-3-(trifluoromethyl)-7,8-dihydro[1,2,4]triazolo[4,3-b]pyridazine] |
| 10 µM | CC(=O)N1CCN(CCCOc2ccc(N3CCN(C4=Nn5c(nnc5C(F)(F)F)CC4)CC3)cc2)CC1 [Example 29, 6-(4-{4-[3-(4-acetylpiperazin-1-yl)propoxy]phenyl}piperazin-1-yl)-3-(trifluoromethyl)-7,8-dihydro[1,2,4]triazolo[4,3-b]pyridazine] |
| 6.7 µM | CCCCC(=O)N1CCN(CCCOc2ccc(N3CCN(C4=Nn5c(nnc5C(F)(F)F)CC4)CC3)cc2)CC1 [Example 30, 6-(4-{4-[3-(4-pentanoylpiperazin-1-yl)propoxy]phenyl}piperazin-1-yl)-3-(trifluoromethyl)-7,8-dihydro[1,2,4]triazolo[4,3-b]pyridazine] |
| 18 µM | CS(=O)(=O)N1CCN(CCCOc2ccc(N3CCN(C4=Nn5c(nnc5C(F)(F)F)CC4)CC3)cc2)CC1 [Example 31] |
| 20 µM | CC(=O)N1CCN(CCOc2ccc(N3CCN(C4=Nn5c(nnc5C(F)(F)F)CC4)CC3)cc2)CC1 [Example 32, 6-(4-{4-[2-(4-acetylpiperazin-1-yl)ethoxy]phenyl}piperazin-1-yl)-3-(trifluoromethyl)-7,8-dihydro[1,2,4]triazolo[4,3-b]pyridazine] |
| 7.8 µM | CCCCC(=O)N1CCN(CCOc2ccc(N3CCN(C4=Nn5c(nnc5C(F)(F)F)CC4)CC3)cc2)CC1 [Example 33, 6-(4-{4-[2-(4-pentanoylpiperazin-1-yl)ethoxy]phenyl}piperazin-1-yl)-3-(trifluoromethyl)-7,8-dihydro[1,2,4]triazolo[4,3-b]pyridazine] |
| 23 µM | CS(=O)(=O)N1CCN(CCOc2ccc(N3CCN(C4=Nn5c(nnc5C(F)(F)F)CC4)CC3)cc2)CC1 [Example 34, 6-[4-(4-{2-[4-(methylsulfonyl)piperazin-1-yl]ethoxy}phenyl)piperazin-1-yl]-3-(trifluoromethyl)-7,8-dihydro[1,2,4]triazolo[4,3-b]pyridazine] |
| 4.5 µM | Cn1nccc1CCOc1ccc(C2(O)CCN(C3=Nn4c(nnc4C(F)(F)F)CC3)CC2)cc1 [Example 36, 4-{4-[2-(1-methyl-1H-pyrazol-5-yl)ethoxy]phenyl}-1-[3-(trifluoromethyl)-7,8-dihydro[1,2,4]triazolo[4,3-b]pyridazin-6-yl]piperidin-4-ol] |
| 4.8 µM | CCc1nccn1CCOc1ccc(N2CCN(C3=Nn4c(nnc4C(F)(F)F)CC3)CC2)cc1 [Example 39, 6-(4-{4-[2-(2-ethyl-1H-imidazol-1-yl)ethoxy]phenyl}piperazin-1-yl)-3-(trifluoromethyl)-7,8-dihydro[1,2,4]triazolo[4,3-b]pyridazine] |

| SMILES | IC50 |
| --- | --- |
| FC(F)(F)CCCOc1ccc(C2CCN(C3=Nn4c(nnc4C(F)(F)F)CC3)CC2)cc1 [Example 35, 6-{4-[4-(4,4,4-trifluorobutoxy)phenyl]piperidin-1-yl}-3-(trifluoromethyl)-7,8-dihydro[1,2,4]triazolo[4,3-b]pyridazine] | 2.3 µM |
